{"source": "patent US5063206A", "about": "“Compositions having use as treatment of neuropsychiatric deficits” (The United States of Americas as represented by the …, priority 1989, dated 1991)", "system": "volunteers who tested negative for HIV antibodies", "assay": "Clinical effects observed in volunteers who tested negative for HIV antibodies", "format": "in vivo, human", "experimental": "was given at dosage of 0.033 mg/kg/da to 0.133 mg/kg/da for seven days. As indicated in the Table, the unexpected effects observed in these volunteers who tested negative for HIV antibodies were the following: […]", "data": [{"substance": "D--Ala--Ser--Thr--Thr--Thr--Asn--Tyr--Thr--amide (ASTTTNYT; N-terminal D-residue; C-terminal amide; printed: Ala--Ser--Thr--Thr--Thr--Asn--Tyr--Thr--) [Peptide T]", "values": [{"measurement": "symptoms of substance abuse, childhood dyslexia and depression", "setting": "0.033 mg/kg/da to 0.133 mg/kg/da for seven days", "result": "ameliorated"}, {"measurement": "scores on memory and attention components of standard neuropsychologic tests", "setting": "0.033-0.133 mg/kg/da for seven days, effect remitted after Peptide T was discontinued", "result": "Incremental scores"}, {"measurement": "physical activity while on drug", "setting": "all subjects, did not continue after drug discontinuance", "result": "increases in physical activity"}, {"measurement": "mood scores on depression scales", "setting": "the two research volunteers who had prior histories of depression", "result": "Improved mood scores"}, {"measurement": "duration of the improved mood effect", "setting": "the two research volunteers who had prior histories of depression, follow-up", "result": "maintained for one month of follow-up"}]}]}
